# Measured values as given in US7964642B2, “Vanilloid TRPV1 receptor antagonists” (Pharmeste S.R.L., priority 2004, dated 2011).
# Legend:
# [1] = target: T1, vanilloid TRPV1 receptor (Rattus norvegicus, UniProt O35433); experiment: Ca2+ fluorescence measurements in cultured rat trigeminal ganglia neurons: inhibition of capsaicin-induced calcium mobilisation; assay type: cell-based; conditions: capsaicin 0.1 μM; for IC50: 10 minutes pre-incubation, mean and 95% fiducial limits, read-out: IC50 inhibiting capsaicin-evoked [Ca2+]i mobilization; for concentration giving complete inhibition of the response to capsaicin / threshold concentration that produced an inhibitory effect: compounds incubated 10 minutes prior to capsaicin challenge
# T1 construct: rat trigeminal neuronal cells, that therefore were identified as TRPV1 expressing neurons; endogenous in cells; host or cells: primary trigeminal ganglion neurons from 2-day-old Sprague-Dawley rats
# T1 sequence (O35433 whole entry): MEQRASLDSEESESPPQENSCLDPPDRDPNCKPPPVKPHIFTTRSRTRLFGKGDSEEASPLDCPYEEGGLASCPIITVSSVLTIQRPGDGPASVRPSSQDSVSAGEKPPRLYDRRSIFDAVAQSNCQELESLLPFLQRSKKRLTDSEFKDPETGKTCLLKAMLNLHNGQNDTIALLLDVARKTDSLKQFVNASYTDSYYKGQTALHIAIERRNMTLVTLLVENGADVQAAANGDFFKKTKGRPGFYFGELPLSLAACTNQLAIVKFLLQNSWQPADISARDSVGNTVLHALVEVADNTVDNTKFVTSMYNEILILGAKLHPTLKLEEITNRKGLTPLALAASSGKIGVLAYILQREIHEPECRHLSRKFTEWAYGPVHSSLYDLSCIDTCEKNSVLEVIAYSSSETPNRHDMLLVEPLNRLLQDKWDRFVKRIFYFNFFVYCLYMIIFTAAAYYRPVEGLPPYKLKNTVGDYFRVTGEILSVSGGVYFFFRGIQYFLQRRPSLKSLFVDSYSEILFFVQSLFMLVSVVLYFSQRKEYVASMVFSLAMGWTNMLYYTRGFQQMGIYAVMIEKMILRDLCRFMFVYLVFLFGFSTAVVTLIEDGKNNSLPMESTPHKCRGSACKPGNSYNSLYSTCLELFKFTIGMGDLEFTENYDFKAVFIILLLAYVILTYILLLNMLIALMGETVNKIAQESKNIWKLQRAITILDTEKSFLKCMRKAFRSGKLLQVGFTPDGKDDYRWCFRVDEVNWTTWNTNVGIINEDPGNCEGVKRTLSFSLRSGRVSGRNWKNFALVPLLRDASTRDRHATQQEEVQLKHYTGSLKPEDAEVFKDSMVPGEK
# Experimental: Ca^2+ Fluorescence Measurements in Cultured Rat Trigeminal Ganglia
# Newborn rats (2 days old) were terminally anaesthetized and decapitated. Trigeminal ganglia were removed and rapidly placed in a cold phosphate buffered solution (PBS) before being transferred to collagenase/dispase (1 mg/ml dissolved in Ca^2+-Mg^2+-free PBS) for 35 min. at 37° C.^4.
# After the enzymatic treatment the ganglia were rinsed three times with Ca^2+-Mg^2+-free PBS and then placed in 2 ml of cold DMEM supplemented with 10% foetal bovine serum (FBS, heat inactivated), 2 mM L-glutamine, 100 μ/ml penicillin and […] streptomycin. The ganglia were then dissociated into single cells by several passages through a series of syringe needles (23 G down to 25 G). Finally, the medium and ganglia cells sieved through a […] filter to remove debris and taken up with 8 ml of DMEM medium and centrifuged (200×g for 5 min.). The final cell pellet was re-suspended in DMEM medium (supplemented with 100 ng/ml mouse Nerve Growth Factor (mouse-NGF-7S) and cytosine-β-D-arabino-furanoside free base (ARA-C) […]). The cells were plated on poly-L-lysine (8.3 mM) and laminin (5 mM) coated 25 mm glass cover slips and kept for 2 to 5 days at 37° C. in a humidified incubator gassed with 5% CO2 and air. Plated neurons were loaded with Fura-2-AM-ester (3 μM) in Ca^2+ buffer solution of the following composition (mM): CaCl2 1.4, KCl 5.4, MgSO4 0.4, NaCl 135, D-glucose 5, HEPES 10 with BSA 0.1%, at pH 7.4, for 40 min at 37° C., washed twice with the Ca^2+ buffer solution and transferred to a chamber on the stage of a Nikon eclipse TE300 microscope. The dye was excited at 340 and 380 nm to indicate relative [Ca^2+]i changes by the F340/F380 ratio recorded with a dynamic image analysis system (Laboratory Automation 2.0, RCS, Florence, Italy). Capsaicin (0.1 μM) and ionomycin (5 μM) were added to the chamber. A calibration curve using a buffer containing Fura-2-AM-ester and determinant concentrations of free Ca^2+ was used to convert the obtained data from F340/F380 ratio to [Ca^2+]i (nM)^5.
# The effects of Ia, Ib and Ic were tested against capsaicin-induced calcium mobilisation; Ia, Ib and Ic were incubated for 10 minutes prior to the capsaicin challenge. The inhibitory effect of the reference TRPV1 antagonist, capsazepine, was also tested.
# [2] = target: T1, vanilloid TRPV1 receptor; experiment: Wiping test in rats (capsaicin-induced wiping movements); assay type: in vivo; conditions: intraperitoneal; for effect on capsaicin-induced wiping in rats: 15 minutes prior to capsaicin challenge; for ED50 capsaicin-induced wiping: 15 minutes prior to capsaicin challenge (capsaicin 0.1%, 50 μl on conjunctiva), mean and 95% fiducial limits
# Experimental: Newborn and adult Sprague-Dawley rats (˜250 g) were used (Harlam, Italy). All experiments complied with the national guidelines and were approved by the regional ethics committee.
# The irritant effect (induction of wiping movements) of capsaicin was assessed by applying capsaicin 0.1% (50 μl) on the rat conjunctiva and the number of wiping movements was recorded during the 60 s period that followed the application. In another set of experiments, the rats were treated intraperitoneally with different doses of Ia and Ic and capsaicin-induced wiping was studied.
# [3] = tested on: rat trigeminal neuronal cells; experiment: Ca2+ fluorescence measurements in cultured rat trigeminal ganglia neurons: KCl-evoked [Ca2+]i mobilization; assay type: cell-based; conditions: 5 mM KCl
SMILES,IC50 [1],concentration giving complete inhibition of the response to capsaicin [1],threshold concentration that produced an inhibitory effect [1],effect on capsaicin-induced wiping in rats [2],ED50 capsaicin-induced wiping [2],Mobilization of [Ca2+]i evoked by KCl [3]
"COc1cc(CNC(=S)NCc2ccc(C(C)(C)C)cc2)c(I)cc1O [Ia, 1-(4-tert-butyl)-3-(2-iodo-4-hydroxy-5-methoxybenzyl) thiourea]",3.48 nM,0.1 µM,0.1 nM,significantly reduced,2.76 (2.05-3.35) mg/kg,not affected
"COc1cc(CNC(=S)NCc2ccc(C(C)(C)C)cc2)c(Cl)cc1O [Ib, 1-(4-tert-butyl)-3-(2-chloro-4-hydroxy-5-methoxybenzyl) thiourea]",3.86 nM,–,0.1 nM,–,–,not affected
"COc1cc(CNC(=S)NCc2ccc(C(F)(F)F)cc2)c(I)cc1O [Ic, 1-(4-trifluoromethyl)-3-(2-iodo-4-hydroxy-5-methoxybenzyl) thiourea]",70 nM,3 µM,1 nM,significantly reduced,7.20 (6.34-7.89) mg/kg,not affected
"Oc1cc2c(cc1O)CN(C(=S)NCCc1ccc(Cl)cc1)CCC2 [capsazepine, reference compound]",2340 nM,–,–,–,–,–
